Source: patent US20180371044A1, “PEPTIDOMIMETIC MACROCYCLES” (Aileron Therapeutics, Inc., priority 2015, published 2018)
Where a SMILES comes first, the peptide text is derived from it. Bridges are numbered along the chain shown (N, C = ends). [ ]: non-standard residue; d: D form. NMeY = CN[C@@H](Cc1ccc(O)cc1)C(=O)O; S5 = C=CCCC[C@](C)(N)C(=O)O; Nle = CCCC[C@H](N)C(=O)O

Key:
[1] = target: T1, VIPR1 (Vasointestinal Peptide Receptor 1) (Homo sapiens, UniProt P32241); assay: DiscoverX cAMP Hunter eXpress VIPR1 CHO-K1 GPCR assay; assay type: cell-based; settings: VIPR1 CHO-K1 cells
T1 construct: host or cells: CHO-K1 (cAMP Hunter eXpress VIPR1 CHO-K1 GPCR assay kit)
T1 sequence (P32241 31-457): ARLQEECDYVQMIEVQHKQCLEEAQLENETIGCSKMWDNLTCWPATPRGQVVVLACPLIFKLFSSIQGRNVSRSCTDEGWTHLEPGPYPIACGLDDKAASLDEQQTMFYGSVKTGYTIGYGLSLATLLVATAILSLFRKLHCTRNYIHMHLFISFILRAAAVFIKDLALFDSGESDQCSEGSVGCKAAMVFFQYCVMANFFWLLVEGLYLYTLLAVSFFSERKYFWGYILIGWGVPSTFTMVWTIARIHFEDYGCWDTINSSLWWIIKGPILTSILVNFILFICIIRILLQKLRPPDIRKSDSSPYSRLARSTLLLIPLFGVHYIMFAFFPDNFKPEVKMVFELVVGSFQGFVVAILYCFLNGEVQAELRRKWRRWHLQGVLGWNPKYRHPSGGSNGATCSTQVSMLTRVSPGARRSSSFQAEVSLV
Excerpt: DiscoverX cAmP Hunter eXpress VIPRI CHO-K1 GPCR and GHRHR CHO-K1 GPCR assays kits were used. The DiscoverX kits contain naturally coupled GPCR cell lines designed to detect GPCR signaling through second messenger activation. This signaling involves a membrane bound enzyme called adenylate cyclase. […] receptors modulate cAMP by either inhibiting or stimulating adenylate cyclase, respectively. The DiscoverX cell lines included in the kits utilize the natural coupling status of the GPCR to monitor activation of […] receptors. Following ligand stimulation, the functional status of the GPCR is monitored by measuring cellular cAMP levels using a homogeneous, gain of signal competitive immunoassay based on Enzyme Fragment Complementation (EFC). The amount of EFC is measured by analysis with a fluorescent plate reader.
On the day before the assay, the DiscoverX cell lines were defrosted, plated into 384 well plates and allowed to incubate overnight. All the samples were diluted to 2 mM using 100% DMSO. The vials were sonicated and centrifuged to assure all peptides went into solution. The final volumes were small, 80-200 μl. An 80% purity and peptide content was assumed for all samples and dilutions were based on the molecular weights. On the day of the assay, the samples were diluted to 200 μM in water and then to 4 μM in DiscoverX assay buffer (supplemented with 0.1% BSA). Serial dilutions were performed on assay day, 16 dilutions from 1000 nM were run side by side in duplicate for each peptide for study. The assays were performed in the 384 well plates with the assistance of a CyBio Bi-Well 384 channel liquid handling robot. The samples were analyzed on a Tecan Ultra Evolution plate reader according to DiscoverX guidelines. The EC50 values were determined using GraphPad Prism software. The EC50 value is defined as the concentration of agonist that provokes a response halfway between the baseline and maximum response.
DiscoverX™ cAmP Hunter eXpress VIPR1 CHO-K1 GPCR and GHRHR CHO-K1 GPCR assay kits were used. On the day before the assay, the DiscoverX™ cell lines were defrosted, plated into 384 well plates and allowed to incubate overnight. All the samples were diluted to 2 mM using 100% DMSO. The vials were sonicated and centrifuged to assure all peptides went into solution. The final volumes were small, 80-200 μl. An 80% purity and peptide content was assumed for all samples and dilutions were based on the molecular weights. On the day of the assay, the samples were diluted to 200 μM in water and then to 4 μM in DiscoverX™ assay buffer (supplemented with 0.1% BSA). Serial dilutions were performed on assay day, 16 dilutions from 1000 nM were run side by side in duplicate for each peptide for study. The assays were performed in the 384 well plates with the assistance of a CyBio™ Bi-Well 384 channel liquid handling robot. The samples were analyzed on a Tecan™ Ultra Evolution plate reader according to DiscoverX™ guidelines. The EC50 values were determined using GraphPad™ Prism software. The EC50 value is defined as the concentration of agonist that provokes a response halfway between the baseline and maximum response. (+=>25 nM; ++=>10-25 nM; +++=>1-10 nM; ++++=>0.1-1 nM; +++++=<0.1 nM). […]

Plasma compatibility = assay type: physicochemical
Experimental: The plasma compatibility of exemplary peptidomimetic macrocycles was also determined. Peptidomimetic macrocycles with a plasma compatability value (PC) that is greater than 0.1 were determined as being plasma compatible.

[2] = target: T2, human GHRH receptor (hGHRHR) (Homo sapiens, UniProt Q02643); assay: GHRHR agonism measured by cAMP (HTRF) in human 293 cells expressing hGHRHR; assay type: cell-based; settings: 30 min at RT;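 further: receptor expressed transiently or stably, cells stimulated in serum-free medium, EC50 from a non-linear dose-response fit, maximal response defined by reference GHRH stimulation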
T2 construct: expressed in transfected cells; host or cells: Human 293 cells
T2 sequence (Q02643 23-423): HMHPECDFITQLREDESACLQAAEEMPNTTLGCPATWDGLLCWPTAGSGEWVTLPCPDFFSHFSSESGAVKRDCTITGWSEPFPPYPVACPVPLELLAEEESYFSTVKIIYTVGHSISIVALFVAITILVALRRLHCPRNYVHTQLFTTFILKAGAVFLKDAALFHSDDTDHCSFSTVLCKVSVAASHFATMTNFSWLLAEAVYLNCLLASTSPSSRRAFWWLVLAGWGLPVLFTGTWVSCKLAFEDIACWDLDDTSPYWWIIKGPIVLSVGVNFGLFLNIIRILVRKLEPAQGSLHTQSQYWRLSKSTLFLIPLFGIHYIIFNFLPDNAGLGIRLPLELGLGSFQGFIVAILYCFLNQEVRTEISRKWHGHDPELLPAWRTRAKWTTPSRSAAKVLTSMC

[3] = Solubility by measuring turbidity (OD600) in human plasma; assay type: physicochemical
Experimental: In some embodiments, a peptidomimetic macrocycle can be prepared based on solubility of the polypeptide, for example if the prepared peptidomimetic macrocycle is determined to be soluble based on visual examination of the turbidity of a solution of the polypeptide. In some embodiments, an aqueous solubility of the peptidomimetic macrocycle is determined by evaluating the turbidity of a solution comprising the peptidomimetic macrocycle. In some embodiments, a plasma solubility of the peptidomimetic macrocycle is determined by evaluating the turbidity of a solution comprising the peptidomimetic macrocycle.
Increasing amounts of SP-3 and SP-133 were added to human plasma. The OD600 of each of the solutions was then measured.

GHRHR = target: T3, GHRHR (Homo sapiens, UniProt Q02643); assay: DiscoverX cAMP Hunter eXpress GHRHR CHO-K1 GPCR assay; assay type: cell-based; settings: for Selectivity: EC50 in VIPR1 CHO-K1 cells divided by EC50 in GHRHR CHO-K1 cells; for EC50: GHRHR CHO-K1 cells, cAMP
T3 construct: host or cells: CHO-K1 (cAMP Hunter eXpress GHRHR CHO-K1 GPCR assay kit)
T3 sequence (Q02643 23-423): T2 sequence (Q02643 23-423)
Experimental: DiscoverX cAmP Hunter eXpress VIPRI CHO-K1 GPCR and GHRHR CHO-K1 GPCR assays kits were used. […] Following ligand stimulation, the functional status of the GPCR is monitored by measuring cellular cAMP levels using a homogeneous, gain of signal competitive immunoassay based on Enzyme Fragment Complementation (EFC). The amount of EFC is measured by analysis with a fluorescent plate reader.
DiscoverX™ cAmP Hunter eXpress VIPR1 CHO-K1 GPCR and GHRHR CHO-K1 GPCR assay kits were used. On the day before the assay, the DiscoverX™ cell lines were defrosted, plated into 384 well plates and allowed to incubate overnight. All the samples were diluted to 2 mM using 100% DMSO. The vials were sonicated and centrifuged to assure all peptides went into solution. The final volumes were small, 80-200 μl. An 80% purity and peptide content was assumed for all samples and dilutions were based on the molecular weights. On the day of the assay, the samples were diluted to 200 μM in water and then to 4 μM in DiscoverX™ assay buffer (supplemented with 0.1% BSA). Serial dilutions were performed on assay day, 16 dilutions from 1000 nM were run side by side in duplicate for each peptide for study. The assays were performed in the 384 well plates with the assistance of a CyBio™ Bi-Well 384 channel liquid handling robot. The samples were analyzed on a Tecan™ Ultra Evolution plate reader according to DiscoverX™ guidelines. The EC50 values were determined using GraphPad™ Prism software. The EC50 value is defined as the concentration of agonist that provokes a response halfway between the baseline and maximum response. […] The selectivity value is the concentration of agonist that provokes a response halfway between the baseline and maximum response in VIPR1 CHO-K1 cells divided by the concentration of agonist that provokes a response halfway between the baseline and maximum response in GHRHR CHO-K1 cells.

EC50 [1] [nM]	Plasma Compatability (Plasma compatibility) [mg/mL]	EC50 [2] [nM]	Selectivity (GHRHR)	EC50 (GHRHR) [nM]	Molecule	OD600 ([3]; 7 mg/mL)	OD600 ([3]; 10 mg/mL)	OD600 ([3]; 12 mg/mL)	OD600 ([3]; 16 mg/mL)	OD600 ([3]; 21 mg/mL)	OD600 ([3]; 27 mg/mL)	OD600 ([3]; 35 mg/mL)	OD600 ([3]; 46 mg/mL)	OD600 ([3]; 59 mg/mL)	OD600 ([3]; 77 mg/mL)	OD600 ([3]; 100 mg/mL)	turbidity ([3]; up to 100 mg/mL)
10 to 25	0.9	1 to 10	+++++ (+++++=>50)	0.1 to 1	CCCC[C@H](NC(=O)[C@@H](NC(=O)[C@]1(C)CCCC=CCCC[C@](C)(NC(=O)[C@H](CCCNC(=N)N)NC(=O)[C@H](C)NC(=O)[C@H](CO)NC(=O)[C@H](CC(C)C)NC(=O)[C@H](CCC(N)=O)NC(=O)CNC(=O)[C@H](CC(C)C)NC(=O)[C@@H](NC(=O)[C@H](CCCCN)NC(=O)[C@H](CCCNC(=N)N)NC(=O)[C@H](Cc2ccc(O)cc2)NC(=O)[C@H](CO)NC(=O)[C@]2(C)CCCC=CCCC[C@](C)(NC(=O)[C@H](CC(=O)O)NC(=O)[C@@H](C)NC(=O)[C@@H](N)Cc3ccc(O)cc3)C(=O)N[C@@H]([C@@H](C)CC)C(=O)N[C@@H](Cc3ccccc3)C(=O)N[C@@H]([C@@H](C)O)C(=O)N2)C(C)C)C(=O)N[C@@H](CC(C)C)C(=O)N[C@@H](CC(C)C)C(=O)N[C@@H](CCC(N)=O)C(=O)N1)[C@@H](C)CC)C(=O)N[C@@H](CO)C(=O)N[C@@H](CCCNC(=N)N)C(N)=O [SP-3] (H-Y[dA]D[S5]IFT[S5]SYRKVLGQLSAR[S5]LLQ[S5]I[Nle]SR-NH2; staple 4-8, 21-25)	0.8	1.0	1.2	1.2	1.4	1.6	1.6	1.7	1.8	1.7	1.5	
< 0.1	1.6	≤ 1	+ (+=<5)	< 0.1	CCCC[C@H](NC(=O)[C@@H](NC(=O)[C@H](CC(=O)O)NC(=O)[C@H](CCC(N)=O)NC(=O)[C@H](CC(C)C)NC(=O)[C@H](C)NC(=O)[C@H](CCCCN)NC(=O)[C@H](CCCNC(=N)N)NC(=O)[C@H](C)NC(=O)[C@H](CO)NC(=O)[C@]1(C)CCCC=CCCC[C@](C)(NC(=O)[C@H](CCCCN)NC(=O)[C@H](CCCNC(=N)N)NC(=O)[C@H](Cc2ccc(O)cc2)NC(=O)[C@H](CO)NC(=O)[C@H](C)NC(=O)[C@@H](NC(=O)[C@H](Cc2ccccc2)NC(=O)[C@@H](NC(=O)[C@H](C)NC(=O)[C@H](CC(=O)O)NC(=O)[C@H](C)NC(=O)[C@H](Cc2ccc(O)cc2)NC)[C@@H](C)CC)[C@@H](C)O)C(=O)N[C@@H](CC(C)C)C(=O)N[C@@H](C)C(=O)N[C@@H](CCC(N)=O)C(=O)N1)[C@@H](C)CC)C(=O)N[C@@H](CO)C(=O)N[C@@H](CCCNC(=N)N)C(N)=O [SP-12] (H-[NMeY]ADAIFTASYRK[S5]LAQ[S5]SARKALQDI[Nle]SR-NH2; staple 13-17)												

Further lines, the molecule ahead of its results:

Molecule	EC50 [1] [nM]	Plasma Compatability (Plasma compatibility) [mg/mL]	EC50 [2] [nM]	Selectivity (GHRHR)	EC50 (GHRHR) [nM]	OD600 ([3]; 7 mg/mL)	OD600 ([3]; 10 mg/mL)	OD600 ([3]; 12 mg/mL)	OD600 ([3]; 16 mg/mL)	OD600 ([3]; 21 mg/mL)	OD600 ([3]; 27 mg/mL)	OD600 ([3]; 35 mg/mL)	OD600 ([3]; 46 mg/mL)	OD600 ([3]; 59 mg/mL)	OD600 ([3]; 77 mg/mL)	OD600 ([3]; 100 mg/mL)	turbidity ([3]; up to 100 mg/mL)
CC[C@H](C)[C@H](NC(=O)[C@H](C)NC(=O)[C@H](CC(=O)O)NC(=O)[C@H](C)NC(=O)[C@@H](N)Cc1ccc(O)cc1)C(=O)N[C@@H](Cc1ccccc1)C(=O)N[C@H](C(=O)N[C@@H](CC(N)=O)C(=O)N[C@@H](CO)C(=O)N[C@@H](Cc1ccc(O)cc1)C(=O)N[C@@H](CCCNC(=N)N)C(=O)N[C@@H](CCCCN)C(=O)N[C@H](C(=O)N[C@@H](CC(C)C)C(=O)NCC(=O)N[C@@H](CCC(N)=O)C(=O)N[C@@H](CC(C)C)C(=O)N[C@@H](CO)C(=O)N[C@@H](C)C(=O)N[C@@H](CCCNC(=N)N)C(=O)N[C@@H](CCCCN)C(=O)N[C@@H](CC(C)C)C(=O)N[C@@H](CC(C)C)C(=O)N[C@@H](CCC(N)=O)C(=O)N[C@@H](CC(=O)O)C(=O)N[C@H](C(=O)N[C@@H](CCSC)C(=O)N[C@@H](CO)C(=O)N[C@@H](CCCNC(=N)N)C(N)=O)[C@@H](C)CC)C(C)C)[C@@H](C)O [SP-2, reference compound]	0.1 to 1	4.6															
CCCC[C@H](NC(=O)[C@@H](NC(=O)[C@H](CC(=O)O)NC(=O)[C@H](CCC(N)=O)NC(=O)[C@H](CC(C)C)NC(=O)[C@H](C)NC(=O)[C@H](CCCCN)NC(=O)[C@H](CCCNC(=N)N)NC(=O)[C@H](C)NC(=O)[C@H](CO)NC(=O)[C@]1(C)CCCC=CCCC[C@](C)(NC(=O)[C@H](CCCCN)NC(=O)[C@H](CCCNC(=N)N)NC(=O)[C@H](Cc2ccc(O)cc2)NC(=O)[C@H](CO)NC(=O)[C@H](CCC(N)=O)NC(=O)[C@@H](NC(=O)[C@H](Cc2ccccc2)NC(=O)[C@@H](NC(=O)[C@H](C)NC(=O)[C@H](CC(=O)O)NC(=O)[C@@H](C)NC(=O)[C@H](Cc2ccc(O)cc2)NC)[C@@H](C)CC)[C@@H](C)O)C(=O)N[C@@H](CC(C)C)C(=O)N[C@@H](C)C(=O)N[C@@H](CCC(N)=O)C(=O)N1)[C@@H](C)CC)C(=O)N[C@@H](CO)C(=O)N[C@@H](CCCNC(=N)N)C(N)=O [SP-69] (H-[NMeY][dA]DAIFTQSYRK[S5]LAQ[S5]SARKALQDI[Nle]SR-NH2; staple 13-17)	0.1 to 1	1.6		+ (+=<5)	0.1 to 1												
SP-133: GHRH peptidomimetic macrocycle (YADAIFTASYRKALAQASARKALQDILSR; not fully specified; D-residues; non-natural residues; cyclised or stapled)	> 25	>10		++ (++=>5-15)	1 to 10	0.0	0.0	0.0	0.0	0.0	0.0	0.0	0.0	0.0	0.0	0.0	no turbidity
